Test results from ChEMBL document CHEMBL5215009, “Discovery of Pan-peroxisome Proliferator-Activated Receptor Modulators from an Endolichenic Fungus, Daldinia childiae” (J Nat Prod, 2022).
Activity calls are given as the source filed them. No cut-off for these calls is given here.

Experiments:
[1] = system: Mesenchymal stem cells; assay: Induction of adipogenesis in differentiated human BMMSC cells assessed as increase in adiponectin level at 30 uM in presence of IDX by ELISA; type: functional, cell-based
[2] = system: Mesenchymal stem cells; assay: Induction of adipogenesis in differentiated human BMMSC cells assessed as fold increase in adiponectin level in presence of IDX by ELISA; type: functional, cell-based
[3] = system: Mesenchymal stem cells; assay: Induction of adipogenesis in differentiated human BMMSC cells assessed as fold increase in adiponectin level at 5 uM in presence of IDX by ELISA relative to control; type: functional
[4] = target: T1, Peroxisome proliferator-activated receptor gamma (Homo sapiens) (UniProt P37231); assay: Displacement of fluormone pan-PPARgreen from PPARgamma (unknown origin) at 30 uM by TR-FRET based competitive binding assay relative to control; conditions: filed as partial agonist
T1 sequence (whole entry): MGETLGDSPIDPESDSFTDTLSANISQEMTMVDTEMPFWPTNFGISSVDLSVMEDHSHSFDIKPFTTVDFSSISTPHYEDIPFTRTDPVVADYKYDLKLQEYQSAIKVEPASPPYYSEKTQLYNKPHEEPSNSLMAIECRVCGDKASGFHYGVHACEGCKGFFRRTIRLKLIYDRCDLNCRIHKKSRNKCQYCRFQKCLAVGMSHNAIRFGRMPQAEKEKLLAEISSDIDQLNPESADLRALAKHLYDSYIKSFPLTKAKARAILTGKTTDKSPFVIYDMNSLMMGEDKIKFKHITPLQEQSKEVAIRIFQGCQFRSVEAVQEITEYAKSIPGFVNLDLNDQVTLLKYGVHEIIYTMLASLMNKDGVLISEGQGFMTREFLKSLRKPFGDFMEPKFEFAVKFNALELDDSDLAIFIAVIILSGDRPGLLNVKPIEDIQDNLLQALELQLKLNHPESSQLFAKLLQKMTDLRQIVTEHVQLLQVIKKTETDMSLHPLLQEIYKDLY

[5] = target: T1, Peroxisome proliferator-activated receptor gamma (Homo sapiens); assay: Partial agonist activity at PPARgamma (unknown origin) assessed as increase in fluorescein labeled SRC-1 coactivator peptide requirement by Lanthascreen TR-FRET assay; conditions: filed as partial agonist
[6] = target: T2, Peroxisome proliferator-activated receptor delta (Homo sapiens, UniProt Q03181); assay: Partial agonist activity at PPARdelta (unknown origin) assessed as increase in fluorescein labeled PRIP/RAP250 coactivator peptide requirement by Lanthascreen TR-FRET assay
T2 sequence (Q03181 whole entry): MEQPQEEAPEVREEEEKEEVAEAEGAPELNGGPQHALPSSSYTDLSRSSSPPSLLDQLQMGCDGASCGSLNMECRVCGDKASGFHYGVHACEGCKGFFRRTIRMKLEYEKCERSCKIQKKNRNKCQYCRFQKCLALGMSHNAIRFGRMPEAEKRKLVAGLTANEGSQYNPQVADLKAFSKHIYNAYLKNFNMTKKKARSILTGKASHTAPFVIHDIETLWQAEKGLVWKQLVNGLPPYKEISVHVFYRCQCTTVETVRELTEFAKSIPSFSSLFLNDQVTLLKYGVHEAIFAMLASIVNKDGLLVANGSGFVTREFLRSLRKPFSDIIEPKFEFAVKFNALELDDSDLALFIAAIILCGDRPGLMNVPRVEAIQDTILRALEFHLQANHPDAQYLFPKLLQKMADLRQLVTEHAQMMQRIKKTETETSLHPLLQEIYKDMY

[7] = target: T1, Peroxisome proliferator-activated receptor gamma (Homo sapiens); assay: Partial agonist activity at PPARgamma (unknown origin) assessed as increase in fluorescein labeled SRC-2 coactivator peptide requirement by Lanthascreen TR-FRET assay; conditions: filed as partial agonist
[8] = target: T3, Peroxisome proliferator-activated receptor gamma (Homo sapiens, UniProt P37231); assay: Partial agonist activity at PPARgamma (unknown origin) assessed as increase in fluorescein labeled PRIP/RAP250 coactivator peptide requirement by Lanthascreen TR-FRET assay
T3 sequence (P37231 whole entry): T1 sequence (whole entry)

[9] = target: T4, Peroxisome proliferator-activated receptor alpha (Homo sapiens) (UniProt Q07869); assay: Displacement of fluormone pan-PPARgreen from PPARalpha (unknown origin) at 30 uM by TR-FRET based competitive binding assay relative to control
T4 sequence (whole entry): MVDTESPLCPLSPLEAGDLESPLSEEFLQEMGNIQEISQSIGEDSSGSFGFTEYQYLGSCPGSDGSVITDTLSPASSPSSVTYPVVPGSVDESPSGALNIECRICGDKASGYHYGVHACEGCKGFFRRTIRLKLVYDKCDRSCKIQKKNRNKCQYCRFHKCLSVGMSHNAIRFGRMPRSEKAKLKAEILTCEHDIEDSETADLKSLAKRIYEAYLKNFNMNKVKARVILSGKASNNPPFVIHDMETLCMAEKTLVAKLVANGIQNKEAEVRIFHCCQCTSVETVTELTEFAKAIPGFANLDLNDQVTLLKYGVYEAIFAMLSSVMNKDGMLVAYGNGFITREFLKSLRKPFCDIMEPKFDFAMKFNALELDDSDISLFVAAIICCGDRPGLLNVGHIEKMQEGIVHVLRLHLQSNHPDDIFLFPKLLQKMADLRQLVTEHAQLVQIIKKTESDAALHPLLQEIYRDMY

[10] = target: T5, Retinoic acid receptor RXR-alpha (Homo sapiens) (UniProt P19793); assay: Agonist activity at RXRalpha-LBD (unknown origin) assessed as transactivation by measuring increase in fluorescein-labelled coactivator PGC-1alpha peptide recruitment at 60 uM by Lanthascreen TR-FRET assay relative to control; conditions: filed as agonist
T5 sequence (whole entry): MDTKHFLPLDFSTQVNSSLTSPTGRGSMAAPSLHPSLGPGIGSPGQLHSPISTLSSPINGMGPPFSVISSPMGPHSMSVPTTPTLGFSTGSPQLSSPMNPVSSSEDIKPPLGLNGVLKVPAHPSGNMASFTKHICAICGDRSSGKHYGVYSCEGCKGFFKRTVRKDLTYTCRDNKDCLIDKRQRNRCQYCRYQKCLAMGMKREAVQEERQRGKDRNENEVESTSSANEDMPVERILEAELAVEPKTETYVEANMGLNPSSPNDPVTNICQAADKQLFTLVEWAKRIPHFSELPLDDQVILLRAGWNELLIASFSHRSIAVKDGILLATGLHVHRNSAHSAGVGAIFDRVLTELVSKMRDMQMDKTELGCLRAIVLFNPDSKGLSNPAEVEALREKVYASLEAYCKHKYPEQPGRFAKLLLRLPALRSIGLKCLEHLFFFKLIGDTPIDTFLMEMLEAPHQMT

[11] = system: Mesenchymal stem cells; assay: Induction of adipogenesis in differentiated human BMMSC cells assessed as increase in number and size of lipid droplets at 30 uM in presence of IDX by Oil red O staining based inverted microscope analysis; type: functional, cell-based
[12] = target: T2, Peroxisome proliferator-activated receptor delta; assay: Binding affinity to PPARdelta (unknown origin) assessed as inhibition constant by Cheng-Prusoff equation analysis
[13] = target: T6, Peroxisome proliferator-activated receptor alpha (Homo sapiens, UniProt Q07869); assay: Partial agonist activity at PPARalpha (unknown origin) assessed as increase in PRIP/RAP250 coactivator peptide requirement by Lanthascreen TR-FRET assay
T6 sequence (Q07869 whole entry): T4 sequence (whole entry)

[14] = system: Mesenchymal stem cells; assay: Induction of adipogenesis in differentiated human BMMSC cells assessed as fold increase in adiponectin level at 30 uM in presence of IDX by ELISA relative to control; type: functional
[15] = target: T1, Peroxisome proliferator-activated receptor gamma (Homo sapiens); assay: Partial agonist activity at PPARgamma in human BMMSC cells assessed as inhibition of pioglitazone-induced adiponectin synthesis measured after 5 days by ELISA; type: cell-based; conditions: filed as partial agonist, dose 10-30 µM, time 5.0 day, DDE = dose-dependent effect
[16] = target: T7, Peroxisome proliferator-activated receptor delta (Homo sapiens) (UniProt Q03181); assay: Displacement of fluormone pan-PPARgreen from PPARdelta (unknown origin) at 30 uM by TR-FRET based competitive binding assay relative to control; conditions: filed as partial agonist
T7 sequence (whole entry): T2 sequence (Q03181 whole entry)

[17] = target: T6, Peroxisome proliferator-activated receptor alpha; assay: Binding affinity to PPARalpha (unknown origin) assessed as inhibition constant by Cheng-Prusoff equation analysis
[18] = target: T8, Retinoic acid receptor RXR-alpha (Homo sapiens, UniProt P19793); assay: Agonist activity at RXRalpha-LBD (unknown origin) assessed as transactivation by measuring increase in fluorescein-labelled coactivator PGC-1alpha peptide recruitment by Lanthascreen TR-FRET
T8 sequence (P19793 whole entry): T5 sequence (whole entry)

[19] = target: T3, Peroxisome proliferator-activated receptor gamma; assay: Binding affinity to PPARgamma (unknown origin) assessed as inhibition constant by Cheng-Prusoff equation analysis

Cc1cc(=O)c2c(O)cccc2o1
Activity [1]: Active

COc1cccc2c(-c3cc(-c4ccc(O)c5c(OC)cccc45)c4cccc(OC)c4c3O)ccc(O)c12
Activity [1]: Active

CC(=O)c1c(O)cccc1O
Activity [1]: Active

COc1cccc2ccc(-c3cc(-c4ccc(O)c5c(OC)cccc45)c(O)c4c(OC)cccc34)c(O)c12
Activity [1]: Active

CCc1ccc(CCOc2ccc(CC3SC(=O)NC3=O)cc2)nc1 (stereo not given) [PIOGLITAZONE]
EC50 [2]: 0.79 µM

COc1ccc(Cl)cc1C(=O)NCCc1ccc(S(=O)(=O)NC(=O)NC2CCCCC2)cc1 [GLYBURIDE]
fold change (FC) [3]: 4.93

COc1cccc2ccc(-c3cc(-c4ccc5cccc(OC)c5c4O)c4cccc(OC)c4c3O)c(O)c12
Activity [4]: 52% | Activity [5]: Active | EC50 [6]: 53.9 µM | Activity [7]: Active | EC50 [8]: 50.8 µM | Activity ([9]; filed as partial agonist): 56.5% | Activity [10]: 53.2% | Activity [11]: Active | EC50 [2]: 30.8 µM | Ki [12]: 18.8 µM | EC50 [13]: 58.2 µM | fold change (FC) [14]: 4.1 | inhibition [15]: Dde | Activity [16]: 51.8% | Ki [17]: 9.4 µM | EC50 [18]: 52.9 µM | Ki [19]: 19.1 µM

O=C1CCC(O)c2cccc(O)c21 (stereo not given)
Activity [1]: Active

COc1cccc2ccc(-c3cc(-c4ccc(O)c5c(OC)cccc45)c4cccc(OC)c4c3O)c(O)c12
Activity [1]: Active

COc1cccc2ccc(-c3ccc4cccc(OC)c4c3O)c(O)c12
Activity [1]: Active

COc1cccc2c(-c3ccc(O)c4c(OC)cccc34)ccc(O)c12
Activity [1]: Active

COc1cccc2ccc(-c3ccc(O)c4c(OC)cccc34)c(O)c12
Activity [4]: 61.2% | Activity [9]: 37.6% | Activity [11]: Active | EC50 [2]: 15.2 µM | fold change (FC) [14]: 6 | inhibition [15]: Dde | Activity [16]: 42.1% | Ki [19]: 6.6 µM
